Results from US5707855A (priority 1996, dated 1998).
Values after ≈ are worked out from the molar mass of the structure shown.

Experiments:
S. typhimurium = type: cell-based; settings: C590 versus C587
Protocol: (§1) The minimum inhibitory concentrations of (MIC) of CEME, CEMA and melittin were determined for a number of different bacteria (Table 2). Briefly, cells were grown overnight at 37° C. in LB-S (Luria broth without any salt supplement) and diluted one in 10,000 in the same medium to give concentrations of about 10^4 to 10^5 CFU/ml. The broth dilutions were set up in a 96 well microtiter plate by putting 200 μl of LB-S containing the initial concentration of antibiotic or compound in column 1 and 100 μl of the same medium in columns 2-12. The compounds were diluted by taking 100 μl of broth from column 1 and mixing it with column 2, resulting in a one in two dilution. This was continued to column 10. Finally, 10 μl of bacteria were pipetted into columns 1-11, and the plates incubated overnight at 37° C. The next day the plates were scored for growth in the wells, and the MIC determined.

P. AERUGINOSA H309 [1] = type: cell-based; settings: +80 mM Na+
Protocol: as §1, with “Briefly,” for “The minimum inhibitory concentrations of (MIC) of CEME, CEMA and melittin were determined for a number of different bacteria (Table 2). Briefly,”

[2] = MICs of common antibiotics in the presence of sub-MIC levels of cationic peptides; type: cell-based; settings: for MIC of antibiotic: No peptide
Protocol: as §1
The ability of the cationic peptides to work synergystically was examined by determining the MIC values for some commonly used antibiotics in the presence of sub-MIC levels of cationic peptides (Table 4). […] This may be due to the high membrane permeabilizing activity of CEMA (see below). However, the peptides did lower the MIC of polymyxin B, possibly due to the fact that they are all taken up by the same pathway and are therefore aiding each other's uptake. Of interest is the influence that melittin has on the MIC of polymyxin B, given the […] membrane permeabilizing activity of melittin.

E. cloacae = type: cell-based; settings: strain 218S, Parent of 218R1
Protocol: as §1

E. coli = type: cell-based; settings: strain UB1005, Parent of DC2
Protocol: as §1

E. cloacae 218R1 = type: cell-based; settings: 10 μM NPN; fluorescence increase
Text: (§2) The second assay determined membrane permeability by the ability of 1-N-phenylnaphthylamine (NPN), a small fluorescent probe, to insert itself into the membrane. Normally, very little NPN can penetrate the outer membrane, but in the presence of a membrane permeabilizer it can insert into the hydrophobic membrane resulting in an increase in fluorescence (FIGS. 7 and 8). This N-phenylnaphthylamine uptake assay was previously described by Loh, et al., Antimicrobial Agents and Chemo., 26:546, 1984. Cells were prepared exactly the same as for the lysozyme lysis assay. 1-N-phenylnaphthylamine (NPN) was dissolved in acetone at a concentration of 500 μM. NPN fluorescence was measured in a Perkin-Elmer 650-10S fluorescent spectrophotometer using excitation and emission wavelengths set to 350 nm and 420 nm respectively, with slit widths of 5 nm. The assay was standardized by adding 20 μl of NPN (final concentration of 10 μM) and 10 μl of 0.64 mg/ml of polymyxin B (final concentration of 6.4 μg/ml) into 1 ml of cells, and adjusting the resulting fluorescence to read 90% deflection (90 arbitrary units). Various compounds were tested by adding 10 μl of different concentrations to a cuvette containing 1 ml of cells and 10 μM NPN. Permeabilizing activity was designated as the total fluorescence minus the fluorescence due to NPN alone. Following the fluorescence measurement, the OD600 of the cells was taken to ensure no significant cell lysis had occurred.

P. AERUGINOSA H309 [3] = type: cell-based; settings: 10 μM NPN; fluorescence increase
Text: as §2

[4] = test system: P. aeruginosa H309 Whole Cells; type: binding; settings: 5 mM HEPES pH 7.2, 5 mM KCN; average of at least three trials; read-out: I50 (DPx displacement from whole cells)
E. coli strain DC2 = experiment: Acid-urea gel overlay antibacterial activity; type: cell-based; settings: 15% acid-urea gel overlaid with agar containing ≈10^5 cells, overnight at 37° C.
Protocol: A sample of the partially purified CEME protein was electrophoresed on a 15% acid-urea gel, which separates proteins based on charge and mass (Panyim and Chalkey, Arch. Biochem Biophys., 130:337, 1969). The pH of the buffer is acidic (≈pH 5.0) and the polarity is reversed such that proteins migrate to the cathode. Therefore, the small cationic peptides run relatively quickly through the gel and thus can be easily identified. Antibacterial activity was tested as previously described (Hultmark, Eur. J. Biochem., 106:7, 1980). The gel was incubated in Mueller Hinton broth+0.2M NaPO4 pH 7.4 for 1 hr. It was overlaid with mls of the same media containing 0.6% agar and≈10^5 E. coli strain DC2, and then again with ml of the same media containing only 0.6% agar. […] Melittin is used as a positive control due to its antibacterial activity and similarity in size and PI values.

P. AERUGINOSA H309 [5] = experiment: Lysozyme lysis assay (outer membrane permeabilization); type: cell-based
Protocol: Membrane permeabilization by polycationic compounds was measured in two different assays. The first assay measured membrane disruption by the ability of lysozyme to reach the periplasm and cause cell lysis. […] The uptake of lysozyme into whole cells due to membrane permeabilization by various compounds was previously described in Hancock, et al., Antimicrobial Agents and Chemo., 19:777, 1981. Overnight cultures of P. aeruginosa H309 or E. cloacae 218R1 grown in LB-S were diluted 1 in 50 in fresh medium and grown to an OD600 =0.5-0.6. The cells were harvested in a Silencer H-103N clinical centrifuge at 1800 g for 10 min, washed once with one volume of assay buffer (5 mM HEPES pH 7.2, 5 mM KCN), and resuspended in the same buffer to an OD600 of 0.5. Assays consisted of 600 μl of cells with 50 μg/ml of chicken egg white lysozyme and varying concentrations of cationic compounds. Cell lysis was measured as a decrease in the OD600 in a Perkin-Elmer dual beam spectrophotometer. Parallel experiments performed without lysozyme enabled the measurement of the lytic activity of the compounds themselves. To test whether or not permeability to lysozyme could be inhibited by divalent cations, various concentrations of MgCl2 were added to the assay after the addition of lysozyme and before the addition of the test compound.

P. aeruginosa H103 LPS = experiment: Dansyl polymyxin (DPx) displacement from purified LPS; type: binding; settings: on a μM basis
Protocol: In this assay, DPx was incubated with LPS to saturate the binding sites and then, while polycationic compounds are titrated into the reaction, displacement of the DPx was monitored by the decrease in fluorescence (FIG. 9).
The method of Moore, et al., (Antimicrobial Agents and Chemo., 29:496, 1987), was used to test how much DPx was needed to saturate the binding sties on LPS. Briefly, 5 μl samples of 100 μM DPx were titrated sequentially into 1 ml of 3 μg/ml of LPS until a maximum fluorescence was reached. The fluorescence was measured in a Perkin-Elmer 650-10S fluorescence spectrophotometer with an excitation wavelength of 340 nm and an emission wavelength of 485 nm using slit widths of 5 nm. […] For the binding inhibition assays (Moore, et al., Antimicrobial Agents and Chemo., 29:496, 1987), 2.5 μM DPx was added to 3 μg/ml of H103 LPS in 5 mM HEPES pH 7.2. The test compounds were added 5 μl at a time and the decrease in fluorescence due to displacement of the DPx from the LPS was recorded.

Compound	Sensitivity of defensin sensitive strain C590 relative to parent (MIC change) (S. typhimurium)	MIC (P. AERUGINOSA H309 [1])	MIC of antibiotic in the presence of CEMA ([2]; CEMA 0.7 μg/ml)	MIC of antibiotic in the presence of CEMA ([2]; CEMA 1.4 μg/ml)	MIC of antibiotic in the presence of CEME ([2]; CEME 0.6 μg/ml)	MIC of antibiotic in the presence of CEME ([2]; CEME 1.2 μg/ml)	MIC of antibiotic in the presence of Melittin ([2]; Melittin 2 μg/ml)	MIC of antibiotic in the presence of Melittin ([2]; Melittin 4 μg/ml)	MIC of antibiotic [2]	MIC (E. cloacae)	MIC (E. coli)	Activity in opening up the membrane to NPN (E. cloacae 218R1)	Activity in opening up the membrane to NPN (P. AERUGINOSA H309 [3])	IC50 [4]	Antibacterial activity in overlaid gel (E. coli strain DC2)	Permeabilization of the outer membrane to lysozyme, compared with polymyxin B (P. AERUGINOSA H309 [5]; 50 μg/ml lysozyme, decrease in OD600)	Cell lysis in the absence of lysozyme (P. AERUGINOSA H309 [5]; increased concentrations of peptide)	Permeabilizer activity relative to gentamicin (P. AERUGINOSA H309 [5]; lysozyme lysis assay)	Affinity for LPS compared with polymyxin B (P. aeruginosa H103 LPS)
CC(C)(O/N=C(\C(=O)N[C@@H]1C(=O)N2C(C(=O)[O-])=C(C[n+]3ccccc3)CS[C@H]12)c1csc(N)n1)C(=O)O [Ceftazidime, ceftazidime]	unchanged	2 µg/mL (≈ 3.66 µM)	2 µg/mL	2 µg/mL	4 µg/mL	4 µg/mL	4 µg/mL	2 µg/mL	4 µg/mL										
polymyxin B	four-fold more sensitive		0.5 µg/mL	0.12 µg/mL	0.5 µg/mL	0.25 µg/mL	0.5 µg/mL	0.06 µg/mL	1 µg/mL	0.5 µg/mL	0.5 µg/mL	equally active	equally active	2.04 ± 0.65 µM					
CN(C)[C@@H]1C(O)=C(C(N)=O)C(=O)[C@@]2(O)C(O)=C3C(=O)c4c(O)cccc4[C@@](C)(O)[C@H]3C[C@@H]12 [Tetracycline]			8 µg/mL	4 µg/mL	8 µg/mL	8 µg/mL	8 µg/mL	8 µg/mL	8 µg/mL										
C[C@@H](O)[C@H]1C(=O)N2C(C(=O)O)=C(SCCN=CN)C[C@H]12 [Imipenem]			4 µg/mL	2 µg/mL	4 µg/mL	4 µg/mL	4 µg/mL	4 µg/mL	4 µg/mL										
gentamicin	two-fold more sensitive									0.5 µg/mL	1 µg/mL			39.1 ± 9.67 µM					
CC[C@H](C)[C@H](NC(=O)CN)C(=O)NCC(=O)N[C@@H](C)C(=O)N[C@H](C(=O)N[C@@H](CC(C)C)C(=O)N[C@@H](CCCCN)C(=O)N[C@H](C(=O)N[C@@H](CC(C)C)C(=O)N[C@H](C(=O)N[C@H](C(=O)NCC(=O)N[C@@H](CC(C)C)C(=O)N1CCC[C@H]1C(=O)N[C@@H](C)C(=O)N[C@@H](CC(C)C)C(=O)N[C@H](C(=O)N[C@@H](CO)C(=O)N[C@@H](Cc1c[nH]c2ccccc12)C(=O)N[C@H](C(=O)N[C@@H](CCCCN)C(=O)N[C@@H](CCCNC(=N)N)C(=O)N[C@@H](CCCCN)C(=O)N[C@@H](CCCNC(=N)N)C(=O)N[C@@H](CCC(N)=O)C(=O)N[C@@H](CCC(N)=O)C(N)=O)[C@@H](C)CC)[C@@H](C)CC)[C@@H](C)O)[C@@H](C)O)C(C)C)C(C)C [Melittin, melittin]	two-fold more sensitive												less active		zones of clearing	did not appear to be a good permeabilizer	cell lysis in the absence of lysozyme occurred	5- to 10 fold	slightly lower affinities
